Assay results: US11497751B2, “Modulators of Rho-associated protein kinase” (Redx Pharma PLC, priority 2018, dated 2022)
pIC50: −log10 of the molar value.

Target: T1, N-terminal 6His-tagged ROCK2 catalytic domain 11-552 (Homo sapiens, UniProt O75116)
T1 construct: N-terminal 6His-tagged ROCK2 catalytic domain 11-552; 6His (N); purchased Dundee University, UK; host or cells: baculovirus expression system
Experiment: ROCK2 binding activity: ROCK2 inhibition, ADP-Glo Kinase Assay
Assay type: biochemical
Conditions: 1.25 nM ROCK2, 100 μM long S6 peptide, 20 μM ATP; 1 hour pre-incubation; read-out: ADP-Glo kinase activity assay ROCK2 Category
In short: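 1.25 nM baculovirus-expressed ROCK2 pre-incubated 1 h with compound (1% DMSO), then 100 μM long S6 peptide and 20 μM ATP added for 1 h; 50 mM HEPES pH 7.5, 10 mM Mg acetate, 1 mM DTT. ADP-Glo luminescence; IC50 from four-parameter logistic fit.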

T1 sequence (O75116 11-552): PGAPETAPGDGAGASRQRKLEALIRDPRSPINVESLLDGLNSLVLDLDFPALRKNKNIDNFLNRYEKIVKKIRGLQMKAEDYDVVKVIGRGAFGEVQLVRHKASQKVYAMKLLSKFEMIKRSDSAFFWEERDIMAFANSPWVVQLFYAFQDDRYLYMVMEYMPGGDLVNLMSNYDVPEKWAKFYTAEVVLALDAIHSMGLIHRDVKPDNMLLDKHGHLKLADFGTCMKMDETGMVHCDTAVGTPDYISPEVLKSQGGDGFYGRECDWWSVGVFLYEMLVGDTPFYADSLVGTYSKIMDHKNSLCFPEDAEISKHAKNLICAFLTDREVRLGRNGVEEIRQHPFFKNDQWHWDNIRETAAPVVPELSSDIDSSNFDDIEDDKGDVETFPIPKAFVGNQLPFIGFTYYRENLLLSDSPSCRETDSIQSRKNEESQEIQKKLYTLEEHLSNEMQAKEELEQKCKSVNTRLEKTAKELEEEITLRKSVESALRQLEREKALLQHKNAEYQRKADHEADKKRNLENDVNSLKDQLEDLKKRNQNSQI

Row | pIC50 | SMILES
1 | > 6.52 | CCNC(=O)c1ccc(-c2nc(Nc3ccc4[nH]ncc4c3CC)n(C)n2)cc1 [Example 323]
2 | > 6.52 | CCNC(=O)c1ccc(-c2nc(Nc3ccc4[nH]ncc4c3)n(C)n2)cc1 [Example 324]
3 | 5.52 to 6.52 | CCNC(=O)c1ccc(-c2nc(Nc3ccc4[nH]ncc4c3)n(C)n2)cc1Cl [Example 325]
4 | > 6.52 | CCNC(=O)c1ccc(-c2nc(Nc3ccc4[nH]ncc4c3)n(C)n2)cc1F [Example 326]
5 | > 6.52 | CCNC(=O)c1ccc(-c2nc(Nc3ccc4[nH]ncc4c3)n(C)n2)c(Cl)c1 [Example 327]
6 | 5.00 to 5.52 | COc1cc(-c2nc(Nc3ccc4[nH]ncc4c3C)n(C)n2)ccc1C(=O)NC1CN(C)C1 [Example 328]
7 | 5.00 to 5.52 | COc1cc(-c2nc(Nc3ccc4[nH]ncc4c3C)n(C)n2)ccc1C(=O)NCCN(C)C [Example 329]
8 | > 6.52 | COc1cc(-c2nc(Nc3cnc4[nH]ncc4c3)n(C)n2)ccc1C(=O)NCC(F)(F)F [Example 330]
9 | 5.52 to 6.52 | COc1cc(-c2nc(Nc3cnc4[nH]ncc4c3)n(C)n2)ccc1C(=O)NC(C)C [Example 331]
10 | 5.00 to 5.52 | COc1cc(-c2nc(Nc3cnc4[nH]ncc4c3)n(C)n2)ccc1C(=O)NC1CC1 [Example 332]
11 | < 5.00 | COc1cc(-c2nc(Nc3cc4cn[nH]c4cc3C)n(C)n2)ccc1C(=O)NCC(F)(F)F [Example 335]
12 | > 6.52 | COc1cc(-c2nc(Nc3ccc4[nH]ncc4c3F)n(C)n2)ccc1C(=O)NC(C)(C)C [Example 336]
13 | > 6.52 | COCCn1nc(-c2ccc(C(=O)NCC(F)(F)F)c(C)c2)nc1Nc1ccc2[nH]ncc2c1C1CC1 [Example 337]
14 | > 6.52 | Cn1nc(-c2ccc(C(=O)NCC(C)(F)F)cc2)nc1Nc1ccc2[nH]ncc2c1C1CC1 [Example 338, 4-[5-[(4-cyclopropyl-1H-indazol-5-yl)amino]-1-methyl-1,2,4-triazol-3-yl]-N-(2,2-difluoropropyl)benzamide]
15 | > 6.52 | Cn1ccc(NC(=O)c2ccc(-c3nc(Nc4ccc5[nH]ncc5c4C4CC4)n(C)n3)cc2)n1 [Example 339]
16 | < 5.00 | CCNC(=O)N1CCC(c2nc(Nc3ccc4[nH]ncc4c3C3CC3)n(C)n2)CC1 [Example 340, 4-[5-[(4-cyclopropyl-1H-indazol-5-yl)amino]-1-methyl-1,2,4-triazol-3-yl]-N-ethyl-piperidine-1-carboxamide]
17 | 5.52 to 6.52 | CCNC(=O)N1CC=C(c2nc(Nc3ccc4[nH]ncc4c3C3CC3)n(C)n2)CC1 [Example 341, 4-[5-[(4-cyclopropyl-1H-indazol-5-yl)amino]-1-methyl-1,2,4-triazol-3-yl]-N-ethyl-3,6-dihydro-2H-pyridine-1-carboxamide]
18 | > 6.52 | Cn1nc(-c2ccc(C(=O)NCC(F)(F)F)cc2)nc1Nc1ccc2[nH]ncc2c1C1CC1 [Example 343, 4-[5-[(4-cyclopropyl-1H-indazol-5-yl)amino]-1-methyl-1,2,4-triazol-3-yl]-N-(2,2,2-trifluoroethyl)benzamide]
19 | > 6.52 | Cn1nc(-c2ccc(C(=O)NC3CC3)cc2)nc1Nc1ccc2[nH]ncc2c1C1CC1 [Example 344, N-Cyclopropyl-4-[5-[(4-cyclopropyl-1H-indazol-5-yl)amino]-1-methyl-1,2,4-triazol-3-yl]benzamide]
20 | 5.00 to 5.52 | CCNC(=O)c1ccc(-c2nc(Nc3ccc4[nH]ncc4c3Cl)n(C)n2)cc1C(F)(F)F [Example 345]
21 | > 6.52 | CCNC(=O)c1ccc(-c2nc(Nc3ccc4[nH]ncc4c3Cl)n(C)n2)cc1C [Example 346]
22 | > 6.52 | CCNC(=O)c1ccc(-c2nc(Nc3ccc4[nH]ncc4c3Cl)n(C)n2)c(OC)c1 [Example 347]
23 | > 6.52 | CC(C)NC(=O)COc1ccc(-c2nc(Nc3ccc4[nH]ncc4c3Cl)n(C)n2)cc1C(F)(F)F [Example 348]

Row | pIC50 | SMILES
24 | > 6.52 | CC(C)NC(=O)COc1ccc(-c2nc(Nc3ccc4[nH]ncc4c3Cl)n(C)n2)cc1C#N [Example 349]
25 | > 6.52 | Cc1cc(-c2nc(Nc3ccc4[nH]ncc4c3Cl)n(C)n2)ccc1OCC(=O)NC(C)C [Example 350]
26 | > 6.52 | CC(C)NC(=O)COc1ccc(-c2nc(Nc3ccc4[nH]ncc4c3Cl)n(C)n2)c(C#N)c1 [Example 351]
27 | > 6.52 | CC(C)NC(=O)COc1ccc(-c2nc(Nc3ccc4[nH]ncc4c3Cl)n(C)n2)c(Cl)c1 [Example 352]
28 | > 6.52 | COc1cc(OCC(=O)NC(C)C)ccc1-c1nc(Nc2ccc3[nH]ncc3c2Cl)n(C)n1 [Example 353]
29 | > 6.52 | Cc1cc(OCC(=O)NC(C)C)ccc1-c1nc(Nc2ccc3[nH]ncc3c2Cl)n(C)n1 [Example 354]
30 | > 6.52 | CC(C)NC(=O)COc1ccc(-c2nc(Nc3ccc4[nH]ncc4c3Cl)n(C)n2)c(F)c1 [Example 355]
31 | > 6.52 | CCNC(=O)c1ccc(-c2nc(Nc3ccc4[nH]ncc4c3Cl)n(C)n2)c(F)c1 [Example 356]
32 | > 6.52 | CCNC(=O)c1ccc(-c2nc(Nc3ccc4[nH]ncc4c3Cl)n(C)n2)c(C(F)(F)F)c1 [Example 357]
33 | > 6.52 | CCNC(=O)c1ccc(-c2nc(Nc3ccc4[nH]ncc4c3Cl)n(C)n2)cc1C#N [Example 358]
34 | 5.52 to 6.52 | CCNC(=O)c1cc(F)c(-c2nc(Nc3ccc4[nH]ncc4c3Cl)n(C)n2)c(F)c1 [Example 359]
35 | > 6.52 | CCNC(=O)c1cc(F)c(-c2nc(Nc3ccc4[nH]ncc4c3Cl)n(C)n2)cc1F [Example 360]
36 | 5.52 to 6.52 | CCNC(=O)c1c(F)cc(-c2nc(Nc3ccc4[nH]ncc4c3Cl)n(C)n2)cc1F [Example 361]
37 | > 6.52 | CC(C)NC(=O)COc1ccc(-c2nc(Nc3ccc4[nH]ncc4c3Cl)n(C)n2)c(F)c1F [Example 362]
38 | > 6.52 | COc1cc(-c2nc(Nc3ccc4[nH]ncc4c3Cl)n(C)n2)ccc1C(=O)NC1CCN(CC(F)(F)F)C1 (stereo not drawn) [Example 363]
39 | > 6.52 | Cn1nc(-c2ccc3c(c2)CCNC3=O)nc1Nc1ccc2[nH]ncc2c1Cl [Example 364]
40 | > 6.52 | COc1cc(-c2nc(Nc3ccc4[nH]ncc4c3Cl)n(C)n2)ccc1C(=O)NC1CNCC1(F)F (stereo not drawn) [Example 365]
41 | > 6.52 | Cc1cc(-c2nc(Nc3ccc4[nH]ncc4c3Cl)n(C)n2)ccc1C(=O)NCC(F)(F)F [Example 366]
42 | 5.00 to 5.52 | CN1CCc2cc(-c3nc(Nc4ccc5[nH]ncc5c4Cl)n(C)n3)ccc2C1 [Example 367]
43 | > 6.52 | CC(C)NC(=O)COc1c(F)cc(-c2nc(Nc3ccc4[nH]ncc4c3Cl)n(C)n2)cc1F [Example 368]
44 | > 6.52 | CC(C)NC(=O)COc1cc(F)c(-c2nc(Nc3ccc4[nH]ncc4c3Cl)n(C)n2)cc1F [Example 369]
45 | > 6.52 | CCNC(=O)c1ccc(-c2nc(Nc3ccc4[nH]ncc4c3Cl)n(C)n2)cn1 [Example 370]
46 | > 6.52 | Cn1nc(-c2ccc3c(c2)CCN(C(=O)C(C)(C)C)C3)nc1Nc1ccc2[nH]ncc2c1Cl [Example 371]

Row | pIC50 | SMILES
47 | > 6.52 | Cn1nc(-c2ccc3c(c2)CCN(CC(F)(F)F)C3)nc1Nc1ccc2[nH]ncc2c1Cl [Example 372]
48 | 5.52 to 6.52 | CCNC(=O)c1ccc(-c2nc(Nc3ccc4[nH]ncc4c3Cl)n(C)n2)c2cccnc12 [Example 373]
49 | > 6.52 | Cn1nc(-c2ccc(CNS(=O)(=O)c3cccc(Cl)c3)cc2)nc1Nc1ccc2[nH]ncc2c1Cl [Example 374]
50 | > 6.52 | COC(=O)c1ccc(-c2nc(Nc3ccc4[nH]ncc4c3C3CC3)n(C)n2)cc1OC [Example 375]
51 | > 6.52 | COc1cc(-c2nc(Nc3ccc4[nH]ncc4c3C3CC3)n(C)n2)ccc1C(=O)NC1CCN(CC(F)(F)F)C1 (stereo not drawn) [Example 376]
52 | > 6.52 | Cn1nc(-c2ccc3c(c2)CCNC3=O)nc1Nc1ccc2[nH]ncc2c1C1CC1 [Example 377]
53 | > 6.52 | Cn1nc(-c2ccc(C(=O)NCC(F)(F)F)nc2)nc1Nc1ccc2[nH]ncc2c1C1CC1 [Example 378]
54 | 5.52 to 6.52 | COc1cc(-c2nc(Nc3ccc4[nH]ncc4c3C3CC3)n(C)n2)cnc1C(=O)NC1CC1 [Example 379]
55 | > 6.52 | Cn1nc(-c2ccc(C(=O)NC3CC3)c(F)c2)nc1Nc1ccc2[nH]ncc2c1C1CC1 [Example 380]
56 | > 6.52 | Cn1nc(-c2ccc3c(c2)COC3=O)nc1Nc1ccc2[nH]ncc2c1C1CC1 [Example 381]
57 | > 6.52 | COc1cc(-c2nc(Nc3ccc4[nH]ncc4c3C3CC3)n(C)n2)ccc1C(=O)NC1CC1 [Example 383]
58 | 5.52 to 6.52 | Cn1nc(-c2ccc(C(N)C(F)(F)F)cc2)nc1Nc1ccc2[nH]ncc2c1C1CC1 (stereo not drawn) [Example 384]
59 | > 6.52 | Cn1nc(-c2ccc(CNS(C)(=O)=O)cc2)nc1Nc1ccc2[nH]ncc2c1C1CC1 [Example 385]
60 | 5.52 to 6.52 | CCNC(c1ccc(-c2nc(Nc3ccc4[nH]ncc4c3C3CC3)n(C)n2)cc1)C(F)(F)F (stereo not drawn) [Example 386]
61 | > 6.52 | CCNC(=O)c1ccc(-c2nc(Nc3ccc4[nH]ncc4c3C3CC3)n(C)n2)cc1F [Example 387]
62 | 5.52 to 6.52 | CCNC(c1ccc(-c2nc(Nc3ccc4[nH]ncc4c3C3CC3)n(C)n2)cc1)C(F)F (stereo not drawn) [Example 388]
63 | 5.00 to 5.52 | Cn1nc(-c2ccc3c(c2)CNCC3)nc1Nc1ccc2[nH]ncc2c1C1CC1 [Example 389]
64 | > 6.52 | Cn1nc(-c2ccc(-c3ccccn3)cc2)nc1Nc1ccc2[nH]ncc2c1C1CC1 [Example 390]
65 | > 6.52 | CCC(=O)N1CCc2cc(-c3nc(Nc4ccc5[nH]ncc5c4C4CC4)n(C)n3)ccc2C1 [Example 391]
66 | 5.52 to 6.52 | Cn1nc(-c2ccncc2)nc1Nc1ccc2[nH]ncc2c1C1CC1 [Example 392]
67 | 5.52 to 6.52 | CCNC(=O)c1ccc(-c2nc(Nc3ccc4[nH]ncc4c3)n(C)n2)cc1C [Example 394]
68 | > 6.52 | CCNC(=O)c1ccc(-c2nc(Nc3ccc4[nH]ncc4c3)n(C)n2)c(OC)c1 [Example 395]
69 | > 6.52 | Cc1cc(-c2nc(Nc3ccc4[nH]ncc4c3)n(C)n2)ccc1OCC(=O)NC(C)C [Example 396]
